According to US9884832B2 (priority 2011, dated 2018):

Molecular target: AM2 S31N (serine→asparagine mutation at residue 31 in the M2 protein) (Influenza A virus, UniProt P0DOF5, S31N)
Type: cell-based, influenza virus A/Udorn/72
Conditions: not given

Row | SMILES | S31N OOcyte Inhibition at 100 uM (%)
1 | c1cn(-c2ccc(CNC34CC5CC(CC(C5)C3)C4)cc2)cn1 [Example 36a, N-(4-(1H-imidazol-1-yl)benzyl)adamantan-1-amine] | 26.9%
2 | c1cc2cn[nH]c2cc1CNC12CC3CC(CC(C3)C1)C2 [Example 43a, N-((1H-indazol-6-yl)methyl)adamantan-1-amine] | B (key: (A)=31-95%; (B)=0-30%)
3 | Oc1cc(-c2ccoc2)ccc1CNC12CC3CC(CC(C3)C1)C2 [Example 46a] | A (key: (A)=31-95%; (B)=0-30%)
4 | Oc1cc(-c2cccs2)ccc1CNC12CC3CC(CC(C3)C1)C2 [Example 49a] | B (key: (A)=31-95%; (B)=0-30%)
5 | Cc1ccc(CNC23CC4CC(CC(C4)C2)C3)c(O)c1 [Example 51a] | A (key: (A)=31-95%; (B)=0-30%)

Same assay, conditions: pH 5.5

Row | SMILES | S31N OOcyte Inhibition at 100 uM (%)
6 | Cc1nnc(CNC23CC4CC(CC(C4)C2)C3)o1 [Example 17b, N-((5-methyl-1,3,4-oxadiazol-2-yl)methyl)adamantan-1-amine] | A (key: (A)=31-95%; (B)=0-30%)
7 | Cn1cc(CNC23CC4CC(CC(C4)C2)C3)nn1 [Example 18b, N-((1-methyl-1H-1,2,3-triazol-4-yl)methyl)adamantan-1-amine] | B (key: (A)=31-95%; (B)=0-30%)
8 | Nc1ncc(CNC23CC4CC(CC(C4)C2)C3)s1 [Example 19b] | B (key: (A)=31-95%; (B)=0-30%)
9 | CC(C)(C)c1ncc(CNC23CC4CC(CC(C4)C2)C3)s1 [Example 20b, N-((2-(tert-butyl)thiazol-5-yl)methyl)adamantan-1-amine] | A (key: (A)=31-95%; (B)=0-30%)
10 | C1COC(c2nc(CNC34CC5CC(CC(C5)C3)C4)no2)C1 (centres unmarked) [Example 21b, N-((5-(tetrahydrofuran-2-yl)-1,2,4-oxadiazol-3-yl)methyl)adamantan-1-amine] | A (key: (A)=31-95%; (B)=0-30%)
11 | CC(C)Cc1nc(CNC23CC4CC(CC(C4)C2)C3)no1 [Example 22b, N-((5-isobutyl-1,2,4-oxadiazol-3-yl)methyl)adamantan-1-amine] | A (key: (A)=31-95%; (B)=0-30%)
12 | COCc1nc(CNC23CC4CC(CC(C4)C2)C3)no1 [Example 23b, N-((5-(methoxymethyl)-1,2,4-oxadiazol-3-yl)methyl)adamantan-1-amine] | A (key: (A)=31-95%; (B)=0-30%)
13 | C1CCC(c2nc(CNC34CC5CC(CC(C5)C3)C4)no2)CC1 [Example 24b] | A (key: (A)=31-95%; (B)=0-30%)
14 | Cc1noc(C)c1-c1nc(CNC23CC4CC(CC(C4)C2)C3)no1 [Example 25b, N-((5-(3,5-dimethylisoxazol-4-yl)-1,2,4-oxadiazol-3-yl)methyl)adamantan-1-amine] | B (key: (A)=31-95%; (B)=0-30%)
15 | CCCc1cc(CNC23CC4CC(CC(C4)C2)C3)no1 [Example 26b, N-((5-propylisoxazol-3-yl)methyl)adamantan-1-amine] | A (key: (A)=31-95%; (B)=0-30%)
16 | CC(C)c1cc(CNC23CC4CC(CC(C4)C2)C3)no1 [Example 27b, N-((5-isopropylisoxazol-3-yl)methyl)adamantan-1-amine] | A (key: (A)=31-95%; (B)=0-30%)
17 | COc1ccc(Cc2nc(CNC34CC5CC(CC(C5)C3)C4)no2)cc1OC [Example 28b, N-((5-(3,4-dimethoxybenzyl)-1,2,4-oxadiazol-3-yl)methyl)adamantan-1-amine] | A (key: (A)=31-95%; (B)=0-30%)
18 | CCCc1nc(CNC23CC4CC(CC(C4)C2)C3)no1 [Example 29b, N-((5-propyl-1,2,4-oxadiazol-3-yl)methyl)adamantan-1-amine] | A (key: (A)=31-95%; (B)=0-30%)
19 | COc1ccccc1-c1noc(CNC23CC4CC(CC(C4)C2)C3)n1 [Example 30b, N-((3-(2-methoxyphenyl)-1,2,4-oxadiazol-5-yl)methyl)adamantan-1-amine] | A (key: (A)=31-95%; (B)=0-30%)
20 | Clc1ccccc1-c1nc(CNC23CC4CC(CC(C4)C2)C3)no1 [Example 31b, N-((5-(2-chlorophenyl)-1,2,4-oxadiazol-3-yl)methyl)adamantan-1-amine] | A (key: (A)=31-95%; (B)=0-30%)
21 | c1c(CNC23CC4CC(CC(C4)C2)C3)noc1C1CCCCC1 [Example 32b, N-((5-cyclohexylisoxazol-3-yl)methyl)adamantan-1-amine] | A (key: (A)=31-95%; (B)=0-30%)
22 | Fc1cc(F)cc(-c2cc(CNC34CC5CC(CC(C5)C3)C4)no2)c1 [Example 33b, N-((5-(3,5-difluorophenyl)isoxazol-3-yl)methyl)adamantan-1-amine] | A (key: (A)=31-95%; (B)=0-30%)
23 | COc1ccc(-c2nc(CNC34CC5CC(CC(C5)C3)C4)no2)c(OC)c1 [Example 34b, N-((5-(2,4-dimethoxyphenyl)-1,2,4-oxadiazol-3-yl)methyl)adamantan-1-amine] | A (key: (A)=31-95%; (B)=0-30%)

Row | SMILES | S31N OOcyte Inhibition at 100 uM (%)
24 | COc1ccc(-c2noc(CNC34CC5CC(CC(C5)C3)C4)n2)cc1OC [Example 35b, N-((3-(3,4-dimethoxyphenyl)-1,2,4-oxadiazol-5-yl)methyl)adamantan-1-amine] | A (key: (A)=31-95%; (B)=0-30%)
25 | FC(F)(F)Oc1ccc(-c2cc(CNC34CC5CC(CC(C5)C3)C4)no2)cc1 [Example 36b, N-((5-(4-(trifluoromethoxy)phenyl)isoxazol-3-yl)methyl)adamantan-1-amine] | B (key: (A)=31-95%; (B)=0-30%)
26 | CSc1ccc(-c2cc(CNC34CC5CC(CC(C5)C3)C4)no2)cc1 [Example 37b, N-((5-(4-(methylthio)phenyl)isoxazol-3-yl)methyl)adamantan-1-amine] | A (key: (A)=31-95%; (B)=0-30%)
27 | Fc1cccc(F)c1-c1cc(CNC23CC4CC(CC(C4)C2)C3)no1 [Example 38b, N-((5-(2,6-difluorophenyl)isoxazol-3-yl)methyl)adamantan-1-amine] | A (key: (A)=31-95%; (B)=0-30%)
28 | COc1cccc(-c2cc(CNC34CC5CC(CC(C5)C3)C4)no2)c1 [Example 39b, N-((5-(3-methoxyphenyl)isoxazol-3-yl)methyl)adamantan-1-amine] | A (key: (A)=31-95%; (B)=0-30%)
29 | CSc1ccc(-c2cc(CNCC34CC5CC(CC(C5)C3)C4)no2)cc1 [Example 40b, 1-((3r,5r,7r)-adamantan-1-yl)-N-((5-(4-(methylthio)phenyl)isoxazol-3-yl)methyl)methanamine] | A (key: (A)=31-95%; (B)=0-30%)
30 | COc1ccc(-c2cc(CNC34CC5CC(CC(C5)C3)C4)no2)c(OC)c1 [Example 41b, N-((5-(2,4-dimethoxyphenyl)isoxazol-3-yl)methyl)adamantan-1-amine] | A (key: (A)=31-95%; (B)=0-30%)
31 | CSc1ccccc1-c1cc(CNC23CC4CC(CC(C4)C2)C3)no1 [Example 42b, N-((5-(2-(methylthio)phenyl)isoxazol-3-yl)methyl)adamantan-1-amine] | A (key: (A)=31-95%; (B)=0-30%)
32 | COc1ccsc1-c1cc(CNC23CC4CC(CC(C4)C2)C3)no1 [Example 44b, N-((5-(3-methoxythiophen-2-yl)isoxazol-3-yl)methyl)adamantan-1-amine] | A (key: (A)=31-95%; (B)=0-30%)
33 | Clc1ccccc1-c1cc(CNC23CC4CC(CC(C4)C2)C3)no1 [Example 45b, N-((5-(2-chlorophenyl)isoxazol-3-yl)methyl)adamantan-1-amine] | A (key: (A)=31-95%; (B)=0-30%)
34 | CSC(C)(C)Cc1cc(CNC23CC4CC(CC(C4)C2)C3)no1 [Example 46b, N-((5-(2-methyl-2-(methylthio)propyl)isoxazol-3-yl)methyl)adamantan-1-amine] | A (key: (A)=31-95%; (B)=0-30%)
35 | Brc1ccsc1CNC12CC3CC(CC(C3)C1)C2 [Example 47b, N-((3-Bromothiophen-2-yl)methyl)adamantan-1-amine] | B (key: (A)=31-95%; (B)=0-30%)
36 | c1sc(CNC23CC4CC(CC(C4)C2)C3)cc1C1CC1 [Example 48b, N-((4-Cyclopropylthiophen-2-yl)methyl)adamantan-1-amine] | A (key: (A)=31-95%; (B)=0-30%)
37 | CCOc1ccc(-c2ccc(CNC34CC5CC(CC(C5)C3)C4)s2)cc1 [Example 49b, N-((5-(4-Ethoxyphenyl)thiophen-2-yl)methyl)adamantan-1-amine] | A (key: (A)=31-95%; (B)=0-30%)
38 | CC(C)(C)c1ccc(-c2ccc(CNC34CC5CC(CC(C5)C3)C4)s2)cc1 [Example 50b, N-((5-(4-(tert-Butyl)phenyl)thiophen-2-yl)methyl)adamantan-1-amine] | A (key: (A)=31-95%; (B)=0-30%)
39 | Cc1csc(-c2ccc(CNC34CC5CC(CC(C5)C3)C4)s2)c1 [Example 51b, N-((4′-Methyl-[2,2′-bithiophen]-5-yl)methyl)adamantan-1-amine] | A (key: (A)=31-95%; (B)=0-30%)
40 | Cc1ccc(-c2ccc(CNC34CC5CC(CC(C5)C3)C4)s2)o1 [Example 52b, N-((5-(5-Methylfuran-2-yl)thiophen-2-yl)methyl)adamantan-1-amine] | A (key: (A)=31-95%; (B)=0-30%)
41 | c1ccc(-c2cnc(CNC34CC5CC(CC(C5)C3)C4)[nH]2)cc1 [Example 53b, N-((5-phenyl-1H-imidazol-2-yl)methyl)adamantan-1-amine] | A (key: (A)=31-95%; (B)=0-30%)
